{
  "source": "patent US6310095A",
  "about": "“Inhibitors of protein isoprenyl transferases” (University of Pittsburgh, priority 1998, dated 2001)",
  "target": "T1, protein farnesyltransferase (Rattus norvegicus, UniProt Q02293+Q04631)",
  "T1 construct": "Rat brain protein farnesyltransferase activity is measured; from tissue; host or cells: rat brain; purified according to Reiss et al., Cell 62:81-88 (1990), steps one through three",
  "experiment": "in vitro inhibition of protein farnesyltransferase (scintillation proximity assay, biotin-K Ras B fragment)",
  "format": "biochemical",
  "outline": "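Rat brain enzyme, purified through three steps, in a scintillation proximity assay kit with biotin-K Ras B fragment substrate at 0.1 mM final. Value is % inhibition of farnesylation.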",
  "key": {"[1]": {"conditions": "at 1 × 10^-6 M, read-out: % inhibition of farnesyltransferase"}, "[2]": {"conditions": "at 1 × 10^-7 M, read-out: % inhibition of farnesyltransferase"}},
  "note": "Structures can show the parent of a compound that is named as a salt.",
  "data": [
    {"smiles": "CSCC[C@H](NC(=O)c1ccc(CN(CCO)c2ccccc2)cc1-c1ccccc1)C(=O)O", "note": "[Example 505]", "values": [
      {"measurement": "inhibition at 1 µM", "setting": "[1]", "result": 72, "unit": "%"}
    ]},
    {"smiles": "CCS(=O)(=O)C[C@H](CC1CCCCC1)NCc1ccc(C(=O)N[C@@H](CCS(C)(=O)=O)C(=O)O)c(-c2ccccc2C)c1", "note": "[Example 621, N-[4-(3-cyclohexyl-1-ethylsulfonylpropan-2-ylaminomethyl)-2-(2-methylphenyl)benzoyl]-2-amino-4-methanesulfonylbutanoic acid Lithium Salt]", "values": [
      {"measurement": "inhibition at 0.1 µM", "setting": "[2]", "result": 98, "unit": "%"}
    ]},
    {"smiles": "CSCC[C@H](NC(=O)c1ccc(CN(CCc2ccccc2)c2ccccc2)cc1-c1ccccc1C)C(=O)O", "note": "[Example 507]", "values": [
      {"measurement": "inhibition at 1 µM", "setting": "[1]", "result": 96, "unit": "%"}
    ]},
    {"smiles": "CSCC[C@H](NC(=O)c1ccc(NC(=O)Cc2ccccc2)cc1-c1ccccc1C)C(=O)O", "note": "[Example 540, N-[4-N-phenylacetylamino-2-(2-methylphenyl)benzoyl]methionine lithium salt]", "values": [
      {"measurement": "inhibition at 1 µM", "setting": "[1]", "result": 40, "unit": "%"}
    ]},
    {"smiles": "CSCC[C@H](NC(=O)c1ccc(CN(Cc2ccc(Cl)cc2)c2ccccc2)cc1-c1ccccc1C)C(=O)O", "note": "[Example 781, N-[4-N-(N-phenyl-N-(4-chlorobenzyl)aminomethyl)-2-(2-methylphenyl)benzoyl]methionine lithium salt]", "values": [
      {"measurement": "inhibition at 0.1 µM", "setting": "[2]", "result": 91, "unit": "%"}
    ]},
    {"smiles": "CCOC(=O)c1ccc(NCc2ccc(C(=O)N[C@@H](CCSC)C(=O)O)c(-c3ccccc3)c2)cc1", "note": "[Example 646]", "values": [
      {"measurement": "inhibition at 1 µM", "setting": "[1]", "result": 58, "unit": "%"}
    ]},
    {"smiles": "CSCC[C@H](NC(=O)c1ccc(COCc2ccccc2)cc1-c1ccccc1C)C(=O)[O-].[Li+]", "note": "[Example 571]", "values": [
      {"measurement": "% inhibition of farnesyltransferase", "setting": "at 1 × 10^-7 M", "result": 88, "unit": "%"}
    ]},
    {"smiles": "CSCC[C@@H](C(=O)[O-])N(C)C(=O)c1ccc(COCCCC2CCCCC2)cc1-c1ccccc1C.[Li+]", "note": "[Example 597]", "values": [
      {"measurement": "% inhibition of farnesyltransferase", "setting": "at 1 × 10^-7 M", "result": 75, "unit": "%"}
    ]},
    {"smiles": "CSCC[C@H](NC(=O)c1ccc(COCc2cnc(-c3ccccc3Cl)s2)cc1-c1ccccc1C)C(=O)[O-].[Li+]", "note": "[Example 897]", "values": [
      {"measurement": "% inhibition of farnesyltransferase", "setting": "at 1 × 10^-8 M", "result": 76, "unit": "%"}
    ]},
    {"smiles": "COc1cccc(CNCc2ccc(C(=O)N[C@@H](CCSC)C(=O)O)c(-c3ccccc3)c2)c1", "note": "[Example 652]", "values": [
      {"measurement": "inhibition at 1 µM", "setting": "[1]", "result": 41, "unit": "%"}
    ]},
    {"smiles": "CSCC[C@H](NC(=O)c1ccc(COC2(c3ccccc3)CCN(C(=O)OC(C)(C)C)CC2)cc1-c1ccccc1C)C(=O)[O-].[Li+]", "note": "[Example 816]", "values": [
      {"measurement": "% inhibition of farnesyltransferase", "setting": "at 1 × 10^-6 M", "result": 87, "unit": "%"}
    ]},
    {"smiles": "CSCC[C@H](NC(=O)c1ccc(COCCc2ccc(-c3ccc(F)cc3)o2)cc1-c1ccccc1C)C(=O)[O-].[Li+]", "note": "[Example 535]", "values": [
      {"measurement": "% inhibition of farnesyltransferase", "setting": "at 1 × 10^-7 M", "result": 89, "unit": "%"}
    ]},
    {"smiles": "CSCC[C@H](NC(=O)c1ccc(CN(C)C(C)(C)Cc2ccccc2)cc1-c1ccccc1C)C(=O)O", "note": "[Example 309]", "values": [
      {"measurement": "% inhibition of farnesyltransferase", "setting": "at 1 × 10^-6 M", "result": 98, "unit": "%"}
    ]},
    {"smiles": "CSCC[C@H](NC(=O)c1ccc(CSc2nnc[nH]2)cc1-c1ccccc1C)C(=O)O", "note": "[Example 735]", "values": [
      {"measurement": "% inhibition of farnesyltransferase", "setting": "at 1 × 10^-7 M", "result": 96, "unit": "%"}
    ]},
    {"smiles": "CCc1nnc(NCc2ccc(C(=O)N[C@@H](CCSC)C(=O)O)c(-c3ccccc3C)c2)s1", "note": "[Example 723]", "values": [
      {"measurement": "inhibition at 1 µM", "setting": "[1]", "result": 87, "unit": "%"}
    ]},
    {"smiles": "CSCC[C@H](NC(=O)c1ccc(CN(c2ccccc2)S(=O)(=O)c2ccc(C(F)(F)F)cc2)cc1-c1ccccc1C)C(=O)O", "note": "[Example 780, N-[4-N-(N-phenyl-N-(4-trifluoromethylbenzenesulfonyl)aminomethyl)-2-(2-methylphenal)-benzoyl]methionine lithium salt]", "values": [
      {"measurement": "inhibition at 0.01 µM", "setting": "at 1 × 10^-8 M, read-out: % inhibition of farnesyltransferase", "result": 71, "unit": "%"}
    ]},
    {"smiles": "CCSC[C@H](CC1CCCCC1)N(Cc1ccc(C(=O)N[C@@H](CCSC)C(=O)O)c(-c2ccccc2C)c1)S(=O)(=O)c1ccccc1", "note": "[Example 951]", "values": [
      {"measurement": "inhibition at 0.1 µM", "setting": "[2]", "result": 71, "unit": "%"}
    ]},
    {"smiles": "CSCC[C@H](NC(=O)c1ccc(CN[C@@H](CO)C2CCCCC2)cc1-c1ccccc1C)C(=O)O", "note": "[Example 604, N-[4-(2-cyclohexylethan-1-ol-2-ylaminomethyl)-2-(2-methylphenyl)benzoyl]methionine Lithium Salt]", "values": [
      {"measurement": "inhibition at 0.1 µM", "setting": "[2]", "result": 86, "unit": "%"}
    ]},
    {"smiles": "C=C[C@@H](CC1CCCCC1)NCc1ccc(C(=O)N[C@@H](CCSC)C(=O)O)c(-c2ccccc2)c1", "note": "[Example 664]", "values": [
      {"measurement": "inhibition at 10 µM", "setting": "at 1 × 10^-5 M", "result": 75, "unit": "%"}
    ]},
    {"smiles": "CSCC[C@H](NC(=O)c1ccc(CN[C@H](CO)Cc2ccccc2)cc1-c1ccccc1C)C(=O)O", "note": "[Example 727]", "values": [
      {"measurement": "inhibition at 1 µM", "setting": "[1]", "result": 95, "unit": "%"}
    ]}
  ]
}
